Here are results for four molecules from patent US7008649B2, “Cancer treatment composition and method using natural plant essential oils with signal transduction modulators” (Ecosmart Techonlogies, Inc., priority 1998, dated 2006).

Common to all, as to type: cell-based, human
Experiment [1] has as its system MCF-7 cells. Kind of experiment: Plant essential oil compounds against E2-induced cell growth, viable cell count (trypan blue, haemocytometer). To be noted: 10 nM estrogen, 5 days of treatment; for protection against E2-induced abnormal cell growth: 1 ug/ml. How it is done: Various concentrations of plant essential oil compounds were tested against E2-induced cell growth to determine the lowest concentrations that antagonize the E2-induced cell growth. MCF-7 cells were cultured in growth medium supplemented with 10% fetal bovine serum (FBS). At 85% confluence, cells were sub-cultured in 6 well petri-dishes and supplemented with 5% FBS serum stripped medium, phenol red free for 24 hours prior to the treatment of different concentrations of the test chemicals. After 5 days of treatment cells were trypsinized and collected using an Eppendorf microcentrifuge. The cell pellets were resuspended in 1% trypan blue. Three aliquots (10 ul each) of the viable cell suspension was counted using a haemocytometer assay. Each sample was then counted three times and to obtain an average count. The compounds were tested in the presence of 10 nM estrogen (=2.7 ng estrogen/ml). Two wells per test concentration were used. This experiment was repeated two times. A control sample-received solvent only at <0.1% ethanol.

Experiment [2] has as its system MCF-7 cells. Kind of experiment: Mixed exposure of plant essential oil compounds and forskolin (FK) on E2-induced breast cancer cell growth (FIG. 3). The settings on record: mixed exposure with forskolin (FK), 10 nM estrogen. How it is done:
(§1) MCF-7 cells were cultured in growth medium supplemented with 10% fetal bovine serum (FBS). At 85% confluence, cells were sub-cultured in 6 well petri-dishes medium supplemented with 5% FBS serum stripped medium, phenol red free for 24 hours prior to the treatment of different concentrations of the test chemicals. Cells were either counted (5 days after treatment) or used to determine cell proliferation (24 hr after treatment) using ^3H-thymidine incorporation. To count the cell, cells were trypsinized, and collected using Eppendorf microcentrifuge. The cell pellets were resuspended in 1% trypan blue and three aliquots (10 ul each) of the viable cell suspension was counted using a haemocytometer assay. Each sample was then counted three times to obtain an average count. For thymidine incoroporation, 24 hr after cell treated with test mixture, cells were incubated with 1 uCi ^3H-thymidine. After 2 hr, the medium was withdrawn and the cells were washed with thymidine-free medium and 10% TCA prior to radioactive count. Plant essential oil compounds were tested in the presence of 10 nM estrogen (=2.7 ng estrogen/ml) using three wells per test concentration. This experiment was repeated two times. A control sample received solvent only at <0.1% ethanol. The data supports the involvement of cellular signaling proteins, particularly cAMP/PKA cascade in the E2-induced cell proliferation in human breast cancer cells as judged by the antiestrogenic activity of FK. However, different methods are required to evaluate antiestrogenic activity.

The subject of experiment [3] is MCF-7 cells. Nature of the experiment: Effect of geldanamycin (GM) on antiestrogenic activity of plant essential oil compounds against E2-induced cell growth (FIG. 4). The settings on record: mixed exposure with geldanamycin (GM), 10 nM estrogen. How it is done: as §1, with “The data supports the involvement of cellular signaling proteins, particularly cAMP/PKA cascade in the E2-induced cell proliferation in human breast cancer cells as judged by the antiestrogenic activity of FK. However, different methods are required to evaluate antiestrogenic activity.” left out

In experiment [4] the test system is MCF-7 cells. Kind of experiment: Mixed exposure of okadaic acid (OA) and plant essential oil compounds, 3H-thymidine incorporation (FIG. 5). The settings on record: 10 ug/ml plant essential oil compound + 1 nM okadaic acid, 24 hr, with or without 10 nM E2. As for the experimental part: MCF-7 cells were cultured in growth medium supplemented with 10% fetal bovine serum (FBS). At 85% confluence, cells were sub-cultured in 6 well petri-dishes medium supplemented with 5% FBS serum stripped medium, phenol red free for 24 hours prior to the treatment of 10 ug/ml of each plant essential oil compound and 1 nM okadiac acid. After 24 hr treatment, cells were used to determine cell proliferation using ^3H-thymidine incorporation. Two hrs after cell incubation with 1 uCi ^3H-thymidine, the medium was withdrawn and the cells were washed with thymidine-free medium and 10% TCA prior to radioactive count. These test chemicals were tested in the presence of 10 nM estrogen (=2.7 ng estrogen/ml). Three wells per test concentration were used. This experiment was repeated two times. A control sample received solvent only at <0.1% ethanol.

Regarding `C=CCc1ccc(O)c(OC)c1` [eugenol], the “protection against E2-induced abnormal cell growth” value with MCF-7 cells [1] is 35%. Also, the “synergism by FK of the antiestrogenic activity of the plant essential oil compound” value (“synergism by FK” below) in the experiment on MCF-7 cells [2] is on record as “synergizes”. Also, in the experiment on MCF-7 cells [3], the “synergism by GM of the antiestrogenic activity against E2 induced cell growth” value is “synergizes”. In addition, the “synergism by OA of the antiestrogenic activity of the plant essential oil compound” value in the experiment on MCF-7 cells [4] is recorded as “regardless of the absence or presence of E2”.
On to `Cc1ccc(C(C)C)c(O)c1` [thymol], for which, in the experiment with MCF-7 cells [1] (5 ug/ml), the “protection against the E2-induced cell proliferation” value is given as 40%. For the same molecule, the “synergism by FK” value in the experiment on MCF-7 cells [2] is given as “not”. Further, the “synergism by OA of the antiestrogenic activity of the plant essential oil compound” value with MCF-7 cells [4] is reported as “only in the absence of E2”.
Turning to `O=C/C=C/c1ccccc1` [Cinnamic aldehyde], the “protection against the E2-induced abnormal cell growth” value in the experiment on MCF-7 cells [1] (10 μg/ml) was “approximately 75%”. For the same molecule, the “synergism by FK” value in the experiment with MCF-7 cells [2] is reported as “synergizes”.
In the case of `CC=Cc1ccc(O)c(OC)c1` [isoeugenol], the “protection against E2-induced abnormal cell growth” value in the experiment with MCF-7 cells [1] came to 25%. In addition, in the experiment with MCF-7 cells [1] (concentration not given), the “protection against the E2-induced abnormal cell growth” value is on record as “approximately 75%”. Further, the “synergism by FK” value in the experiment on MCF-7 cells [2] is “not”.
